Results on 8 molecules are retold here after patent EP4480943A1, “NEW CLASS OF LIPIDS FOR DELIVERING ACTIVE INGREDIENTS INTO CELLS” (Oz Biosciences, priority 2023, dated 2024).

One series deals with F-Luc mRNA expression. Briefly: In vivo transfection of F-Luc mRNA using LNPs, bioluminescence (IVIS imaging). The settings on record: nude mice, i.p. The text has this: Lipids I, VI and XIV have been formulated into LNPs following the molar composition depicted before (Table 1). 5-methoxyuridine-modified mRNA encoding for Firefly Luciferase (OZ Biosciences, Cat: MRNA16-1000) has been entrapped into the LNP. […] Table 3: Main physical properties of mRNA(F-Luc) LNPs based on tunable lipids I, VI, XIV, and cationic lipid DOTAP
Overall, all LNPs formulations display consistent physico-chemical properties, controlled and reproducible size, charge, polydispersity and encapsulation rate to be used in small animals. A dose equivalent to 10 µg of mRNA has been injected i.p. (intra-peritoneally) in nude mice using three different LNPs. Tunable lipids I and XIV and DOTAP-based LNPs have been selected. Bioluminescence has been monitored over time using IVIS imaging system. […] Indeed 3h post injection, luminescence could be observed in all animals at different proportions (Figure 50). Specifically, F-Luc mRNA expression was higher in mice that received LNPs based on tunable lipids, whereas expression was much lower when DOTAP is used.

The nature of series [1]: Size and charge of LNPs by DLS (Malvern NanoZS). The format is physicochemical. How it is done: Thin layer chromatographies (TLC) are carried out on aluminium plates covered with silica gel 60 Fasa (Merck). […] The synthesized products are purified on chromatography columns on silica. The flash chromatography separations are carried out on silica gel 60 (230-400 mesh ASTM) (Merck). Particle size and zeta potential measurements: The mean hydrodynamic particle size and charge measurements were performed using Dynamic Light Scattering (DLS) and Laser Doppler Velocimetry (LDV), respectively, using Malvern Nano ZS instrument and DTS software (Malvern Instruments, UK) in a water of Grade 2. Various amounts of cationic poloxamers were diluted in 100 µl of water and mixed with an equal volume of the same water containing DNA. The measurements were carried out in automatic mode and the results are presented as mean +/- SEM, n= 3. Each mean represents the average value of 30 measurements.
(§1) The size and charge of the collected LNPs are determined using DLS (Malvern Instruments NanoZS) by dissolving 50 µL of the collected solution in 950 µL of MilliQ water. Then, formed LNPs are destabilized by adding 1% v/v of Triton X-100 and incubate at 30°C for 1h and vortexing. After disruption of the formulation, a 1/100 solution of SyBr™Gold in water is prepared, and 0.5µL of it added to 49.5µL of the resulting mixture that includes Triton X-100. The SyBr™Gold is also added the same way to 49.5µL of a solution that contains non-disrupted LNPs, and to 49.5µL of the mRNA mother solution. Fluorescence of each sample is then read after 30 min incubation at RT using a Victor (Perkin Elmer) fluorimeter (excitation: 495nm; emission: 537nm ;). The encapsulation efficiency (ee(%)) is easily obtained from these fluorescence measurements using the formula below: ee (%) = ((Fluo_LNP1v%triton−Fluo_LNP))/(Fluo_RNAstock solution) × 100 [formula]

Series [2] in a line: Encapsulation efficiency / loaded nucleic acid by SyBr Gold fluorescence after Triton X-100 disruption. The format is physicochemical. How it is done: as §1
A further series concerns firefly luciferase. Briefly: Biodistribution study of Luciferase mRNA LNPs, RT-PCR of organs. The settings on record: nude mice, i.p., 10µg RNA dose, RT-PCR 6 hours after injection. The format is in vivo. How it is done: Biodistribution study involving tunable lipids-based LNPs (lipids I, VI, and XIV) has also been conducted in nude mice that were injected i.p. with Luciferase mRNA formulated into 3 different LNPs formulations at 10µg RNA dose to evaluate the nucleic acid delivery into various organs. The liver, lung, kidney and spleen were collected and analysed through RT-PCR 6 hours after injection. As observed previously, tunable lipids-based LNPs are appropriately efficient to allow the observation and quantitation of Luciferase protein in quantity 6 hours after i.p. injection.

Another series deals with ovalbumin (OVA) antigen. The experiment in a line: In vivo immunization with OVA mRNA LNPs, ELISA and Elispot. The settings on record: C57BL6J mice, s.c. prime boost (D0-14), 10µg mRNA. The text has this:
In this context, the emergence of vaccine-based LNPs represents a clear opportunity to reach pathologies impossible to fight with more classical vaccine approach. The tunable lipid presented in this document could envisioned as potent pillar for future nucleic acid-based vaccine, due to their ground-breaking features in term of efficiency and safe character. Thus, LNPs based on tunable lipids I and XIV have been formulated to encapsulate unmodified mRNA coding for the ovalbumin (OVA) antigen (OZ Biosciences, Cat: MRNA42-1000) and their physico-chemical properties determined (Table 4). Table 4: Main physical properties of mRNA(OVA) LNPs based on tunable lipids I and XIV.
C57BL6J mice received a prime boost (D0-14) immunizations of OVA antigen delivered by mRNA-based LNPs or by recombinant protein (alone or adjuvanted with aluminium-based adjuvant). To characterize the immuno-phenotyping of the mice, the sera and splenocytes were collected at different time (D0, D14, D21, D28) and analysed by ELISA and Elispot. The mice were immunized by s.c (sub-cutaneous) route with 100µL per injection at 10µg OVA subunit and 10µg mRNA doses. Results are depicted in figures 51 and 52, mRNA-OVA LNP formulations are efficient at priming a strong humoral response upon sub-cutaneous prime boost injection (D0-14). Indeed, a strong antibody response was measured after prime boost immunization. […]

Setting [3] is: mRNA(F-Luc) LNPs, total lipid 5 mM, N/P 6.
The mark [4] stands for this setting: mRNA(GFP) LNPs, total lipid 3.75 mM, N/P 6.
Setting [5] is: DNA pVectOZ (eGFP) LNPs, total lipid 3.91 mM, N/P 6.6.
Where [6] appears, read: DNA pVectOZ(Ppt) LNPs, total lipid 4 mM, N/P 10.
Where [7] appears, read: mRNA(OVA) LNPs, total lipid 5 mM, N/P 6.
Setting [8] is: DNA pVectOZ (F-Luc) LNPs, total lipid 4.6 mM, N/P 12.
The mark [9] stands for this setting: NTsiRNA-Cy5 LNPs, DiO Label N, total lipid 4.74 mM, N/P 6.
Setting [10] is: NTsiRNA-Cy5 LNPs, DiO Label Y, total lipid 4.74 mM, N/P 6.

Regarding `CCCCCCCC/C=C\CCCCCCCC(=O)OCC(C[N+](C)(C)C)OC(=O)CCCCCCC/C=C\CCCCCCCC` (stereo not shown) [DOTAP, I ,2-dioleoy-3-tri-methylarnmonium propane, reference compound], the “F-Luc mRNA expression (bioluminescence)” value with F-Luc mRNA expression (10 µg of mRNA, 3h post injection) is “much lower”. For the same molecule, in series [1] (setting [3]), the PDI stood at 0.23, the Size was 96 nm and the Zeta entry is listed as “+17 mV”. Also, in series [2] (setting [3]), the “Encapsulation Efficiency” value was determined as 91.5% and the “Loaded RNA” value was determined as 183 ng/µL.
For `CCCCCCC/C=C\CCCCCCCCNC(=O)CCC(NC(=O)CCCN(C)C)C(=O)NCCCCCCCC/C=C\CCCCCCCC` (stereo not shown) [II], in series [1] (setting [4]), the PDI amounted to 0.2, the Size turned out to be 113 nm and the Zeta worked out at 5.57 mV. Besides, in series [2] (setting [4]), the “Encapsulation Efficiency” value is reported as 98.8% and the “Loaded RNA” value is reported as 98.8 ng/µL.
For `CCCCCCCC/C=C\CCCCCCCCNC(=O)CCC(NC(=O)CN(C)C)C(=O)NCCCCCCCC/C=C\CCCCCCCC` (stereo not shown) [I], the “Luciferase gene expression in lung” value in the series on firefly luciferase is recorded as “high protein expression rate”. Besides, the “Luciferase gene expression in spleen” value in the series on firefly luciferase is given as “high protein expression rate”. Moreover, in the series on ovalbumin (OVA) antigen, the “immune response (initial response of IgG2c)” value was “efficient in generating an immune response”. Moreover, the “time of maximum bioluminescence signal post injection” value in the series on F-Luc mRNA expression (10 µg mRNA) amounted to 6 h. In the series with F-Luc mRNA expression (10 µg mRNA, over 25h), the “overall luminescence signal (kinetics)” value was “highest overall luminescence signal”. The PDI in series [1] (setting [5]) was found to be 0.044; in series [1] (setting [6]), 0.079; in series [1] (setting [3]), 0.09; in series [1] (setting [7]) it was 0.153. In addition, the Size in series [1] (setting [5]) is 158.9 nm; in series [1] (setting [6]) it was 173 nm; in series [1] (setting [3]), 88 nm; in series [1] (setting [7]) it was 111.4 nm. Further, the Zeta result in series [1] (setting [5]) is “+4.61 mV”; in series [1] (setting [6]) it was “+14.3 mV”; in series [1] (setting [3]), -7.3 mV; in series [1] (setting [4]) it was -9.3 mV; in series [1] (setting [7]) it was -9.01 mV. The “Encapsulation Efficiency” value turned out to be 83% in series [2] (setting [5]); 82% in series [2] (setting [6]); 97.5% in series [2] (setting [3]); 94.6% in series [2] (setting [4]); 98.1% in series [2] (setting [7]). The “Loaded DNA” value in series [2] (setting [5]) and in series [2] (setting [6]) was 0.125 ng/µL in each case. In addition, the figures for the “Loaded RNA” value in series [2] (setting [3]), in series [2] (setting [4]) and in series [2] (setting [7]) were 195 ng/µL, 94.6 ng/µL and 98.1 ng/µL, respectively.
As for `CCCCCCCC/C=C\CCCCCCCCNC(=O)CCC(NC(=O)CCC(=O)NCCSSCCNC(=O)CN(C)C)C(=O)NCCCCCCCC/C=C\CCCCCCCC` (stereo not shown) [VI], in the series on firefly luciferase, the “Luciferase gene expression in liver” value was “rate comparable to those observed in the lungs” and the “Luciferase gene expression in spleen” value is recorded as “high delivery”. For the same molecule, in series [1] (setting [3]), the PDI was 0.13, the Size is on record as 115 nm and the Zeta is on record as -2.25 mV. For the same molecule, in series [1] (setting [4]), the PDI is recorded as 0.344, the Size is 117 nm and the Zeta entry is reported as “+0.3 mV”. In series [2] (setting [3]), the “Encapsulation Efficiency” value was found to be 94% and the “Loaded RNA” value is 188 ng/µL. Moreover, in series [2] (setting [4]), the “Encapsulation Efficiency” value is on record as 84% and the “Loaded RNA” value stood at 84 ng/µL.
For the molecule `CCCCCCC/C=C\CCCCCCCCNC(=O)CCC(NC(=O)OCCN(CC)CC)C(=O)NCCCCCCCC/C=C\CCCCCCCC` (stereo not shown) [V], in series [2] (setting [4]), the “Encapsulation Efficiency” value was found to be 89% and the “Loaded RNA” value stood at 89 ng/µL.
As for `CCCCC/C=C\C/C=C\CCCCCCCCOC(=O)CCC(NC(=O)CCCN(C)C)C(=O)OCCCCCCCC/C=C\C/C=C\CCCCC` (stereo not shown) [XI], the PDI came out at 0.079 in series [1] (setting [8]), 0.091 in series [1] (setting [9]) and 0.073 in series [1] (setting [10]). The Size in series [1] (setting [8]) turned out to be 103 nm; in series [1] (setting [9]), 116 nm; in series [1] (setting [10]), 99 nm. Besides, the results for the Zeta result in series [1] (setting [8]), in series [1] (setting [9]) and in series [1] (setting [10]) were “+16.5 mV”, “+18.2 mV” and “+19.9 mV”, respectively. Besides, the polydispersity index result in series [1] (NTsiRNA-Cy5 LNPs, with or without DiO) was “below 0.1”. In addition, the entries for the “Encapsulation Efficiency” value in series [2] (setting [8]), in series [2] (setting [9]) and in series [2] (setting [10]) were 92%, above 90% and above 90%, respectively. Moreover, in series [2] (setting [8]), the “Loaded DNA” value is 94 ng/µL. Moreover, the “Loaded siRNA” value in series [2] (setting [9]) and in series [2] (setting [10]) was 0.125 ng/µL throughout.
`CCCCCCCC/C=C\CCCCCCCC(=O)NCCCC(NC(=O)CCCCCCC/C=C\CCCCCCCC)C(=O)NCCCn1ccnc1` (stereo not shown) [XV]: in series [2] (setting [4]), the “Encapsulation Efficiency” value is recorded as 78.3% and the “Loaded RNA” value amounted to 78.3 ng/µL.
Turning to `CCCCC/C=C\C/C=C\CCCCCCCCOC(=O)CCC(NC(=O)CN(C)C)C(=O)OCCCCCCCC/C=C\C/C=C\CCCCC` (stereo not shown) [X], in series [1] (setting [4]), the PDI was 0.109, the Size amounted to 141 nm and the Zeta result is “+11.6 mV”. Besides, in series [2] (setting [4]), the “Encapsulation Efficiency” value is listed as 83.6% and the “Loaded RNA” value was determined as 83.6 ng/µL.
